Literature values as cited in patent US20080146664A1, “Method for treating diseases caused by accumulation of body fat” (priority 2006, published 2008).

Details: addition of conjugated linoleic acid

## conjugated linoleic acid
  lipodystrophy-like symptoms (fatty liver, splenic hypertrophy, disappearance of brown fat): generated
  pattern of adipose tissue decrease: partial decrease in adipose tissue
  significant decrease in the parametrial adipose tissue: not observed
  significant decrease in the weight of the liver: not observed
